Patent publication US20150306096A1, “8'-HYDROXY-DIHYDROERGOTAMINE COMPOUNDS AND COMPOSITIONS” (MAP Pharmaceuticals, Inc., priority 2012, published 2015)
pIC50: −log10 of the molar value. Read-outs that look alike come from different tables or passages of the source.

Tests used:
Assay in all cases: Radioligand competition binding and kinetics, CHO-K1 membranes
human 5-HT1A receptor = biological target: T1, human 5-HT1A receptor (Homo sapiens, UniProt P08908)
T1 construct: purchased Euroscreen; host or cells: CHO-K1
T1 sequence (P08908 1-422): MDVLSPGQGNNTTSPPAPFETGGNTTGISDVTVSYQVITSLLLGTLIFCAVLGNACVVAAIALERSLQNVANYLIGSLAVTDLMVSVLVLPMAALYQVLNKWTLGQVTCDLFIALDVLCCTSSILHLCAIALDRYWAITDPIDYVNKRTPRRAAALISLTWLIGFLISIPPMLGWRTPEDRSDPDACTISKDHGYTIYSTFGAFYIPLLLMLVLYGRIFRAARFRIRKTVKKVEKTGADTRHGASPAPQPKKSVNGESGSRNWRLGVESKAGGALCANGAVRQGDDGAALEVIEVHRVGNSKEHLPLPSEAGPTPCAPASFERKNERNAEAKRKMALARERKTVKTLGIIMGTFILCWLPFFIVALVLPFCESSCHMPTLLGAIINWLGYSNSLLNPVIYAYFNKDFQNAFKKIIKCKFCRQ
Description: (§1) For kinetics of radioligand competitive binding, serial dilutions were performed from master solution in 100% DMSO to obtain intermediate concentrations 200-fold higher than the concentrations to be tested. Each test sample was diluted 100-fold in the assay buffer and dispensed into the test plate.
Determination of the Kon constant. Radioligand association kinetics on each receptor were performed by adding in the wells of a 96 well plate 50 μL of radioligand and 50 μL of membrane extracts. The samples were incubated for the times reported in Table 3 below at a temperature optimized for each receptor and filtered over a filter plate. After washing the filters 5 times with 0.5 mL of ice-cold washing buffer, 50 μL of Microscint 20 (Packard) were added to the filters and the plates were incubated 15 min on an orbital shaker and then counted for 1 min/well. This allowed determination of the kobs for each radioligand. […] The different kobs were then plotted against the [radioligand] and the K. was calculated using the following equation: kon=(kobs−koff)[radioligand].
Determination of the Koff constant. […] The samples were incubated as reported in Table 4 below at a temperature optimized for each receptor until binding equilibrium was reached as determined by the association kinetics experiment. […] After washing the filters 5 times with 0.5 mL of ice-cold washing buffer, 50 μL of Microscint 20 (Packard) were added to the filters and the plates were incubated 15 min on an orbital shaker and then counted for 1 min/well. […]
(§2) Determination of IC50 and Ki constant for each test compound. […] After washing the filters 5 times with 0.5 mL of ice-cold washing buffer, 50 μL of Microscint 20 (Packard) were added to the filters and the plates were incubated 15 min on an orbital shaker and then counted for 1 min/well. […]
(§3) Determination of kon and koff constants for each test compound. Each compound was first assessed in a pilot experiment to evaluate its effect on the kinetic binding of each receptor-radioligand pair. […]

human 5-HT1D receptor = biological target: T2, human 5-HT1D receptor (Homo sapiens, UniProt P28221)
T2 construct: purchased Euroscreen; host or cells: CHO-K1
T2 sequence (P28221 whole entry): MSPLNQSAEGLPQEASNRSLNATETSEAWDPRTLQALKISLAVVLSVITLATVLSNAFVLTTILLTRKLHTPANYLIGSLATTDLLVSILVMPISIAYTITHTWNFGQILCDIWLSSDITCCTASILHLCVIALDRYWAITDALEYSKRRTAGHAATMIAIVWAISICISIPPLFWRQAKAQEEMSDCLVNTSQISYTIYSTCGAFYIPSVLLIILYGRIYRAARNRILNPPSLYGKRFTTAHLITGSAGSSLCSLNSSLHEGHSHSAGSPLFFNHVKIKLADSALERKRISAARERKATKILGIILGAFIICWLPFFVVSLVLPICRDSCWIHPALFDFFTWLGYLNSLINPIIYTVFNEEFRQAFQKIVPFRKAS
Description: as §1
5-HT1D Radioligand Binding Assay
Assay buffer: 50 mM Tris (pH 7.4), 4 mM CaCl2, 0.1% ascorbic acid
Washing buffer: 50 mM Tris (pH 7.4)
Membrane: recombinant CHO-K1-5-HT1D membranes thawed on ice and diluted in assay buffer (10 μg/well)
(§4) Ligand: 5-HT (Sigma, H-9523)
Radioligand: [^3H]-CT (Perkin Elmer, TRK1038, diluted in assay buffer for a final concentration of 0.5 nM) Filter plate: GF/B Unifilter plate (Perkin Elmer, 6005177) presoaked in 0.5% PEI for 2 hours at RT.
(§5) Determination of the Kon constant. Radioligand association kinetics on each receptor were performed by adding in the wells of a 96 well plate 50 μL of radioligand and 50 μL of membrane extracts. The samples were incubated for the times reported in Table 3 below at a temperature optimized for each receptor and filtered over a filter plate. After washing the filters 5 times with 0.5 mL of ice-cold washing buffer, 50 μL of Microscint 20 (Packard) were added to the filters and the plates were incubated 15 min on an orbital shaker and then counted for 1 min/well. This allowed determination of the kobs for each radioligand. Association kinetics were performed at 5 different radioligand concentrations optimized for each receptor (see Table 3 below) to determine 5 different kobs. The different kobs were then plotted against the [radioligand] and the K. was calculated using the following equation: kon=(kobs−koff)[radioligand].
(§6) Determination of the Koff constant. Radioligand dissociation kinetics on each receptor were performed by adding in the wells of a 96 well plate 45 μL of radioligand and 45 μL of membrane extracts. The samples were incubated as reported in Table 4 below at a temperature optimized for each receptor until binding equilibrium was reached as determined by the association kinetics experiment. Then, 100 μL of cold competitor (reference ligand) were added at a 200 fold excess (final concentration) for the times reported in Table 4 at the optimized temperature. The samples were then filtered over a filter plate. After washing the filters 5 times with 0.5 mL of ice-cold washing buffer, 50 μL of Microscint 20 (Packard) were added to the filters and the plates were incubated 15 min on an orbital shaker and then counted for 1 min/well. This allowed determination of the koff for each radioligand.
(§7) Determination of IC50 and Ki constant for each test compound. Radioligand competition binding on each receptor were performed by adding in the wells of a 96 well plate […] of test compound at increasing concentration as reported in Table 5 below, 25 μL of radioligand and 25 μL of membrane extracts. The samples were incubated for 60 min (or 4 hours for a second experiment on 5-HT2B receptors) at a temperature optimized for each receptor and then filtered over a filter plate. After washing the filters 5 times with 0.5 mL of ice-cold washing buffer, 50 μL of Microscint 20 (Packard) were added to the filters and the plates were incubated 15 min on an orbital shaker and then counted for 1 min/well. The test compounds were tested in duplicate at the nanomolar concentrations reported below in Table 5.
(§8) Determination of kon and koff constants for each test compound. Each compound was first assessed in a pilot experiment to evaluate its effect on the kinetic binding of each receptor-radioligand pair. These pilot experiments were performed at on compound concentration and were composed of 10 time-points measurements in duplicate (2, 5, 10, 20, 30, 45, 60, 90, 120 and 150 minutes).

human 5-HT2B receptor = biological target: T3, human 5-HT2B receptor (Homo sapiens, UniProt P41595)
T3 construct: purchased Euroscreen; host or cells: CHO-K1
T3 sequence (P41595 whole entry): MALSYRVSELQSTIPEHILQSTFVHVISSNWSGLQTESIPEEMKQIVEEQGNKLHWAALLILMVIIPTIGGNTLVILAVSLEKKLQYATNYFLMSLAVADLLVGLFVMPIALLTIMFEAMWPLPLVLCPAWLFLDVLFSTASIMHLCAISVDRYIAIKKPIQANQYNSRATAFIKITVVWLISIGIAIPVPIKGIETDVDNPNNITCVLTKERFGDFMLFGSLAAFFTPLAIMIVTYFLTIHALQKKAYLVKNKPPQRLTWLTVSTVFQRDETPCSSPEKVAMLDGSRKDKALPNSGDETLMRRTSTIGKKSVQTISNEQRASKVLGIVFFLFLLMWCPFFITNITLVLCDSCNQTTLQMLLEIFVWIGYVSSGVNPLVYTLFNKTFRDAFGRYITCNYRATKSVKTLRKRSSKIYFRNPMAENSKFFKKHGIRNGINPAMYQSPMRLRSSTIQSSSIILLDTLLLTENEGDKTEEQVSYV
Description: as §1, §4, §5, §6, §2, §3

human 5-HT1B receptor = biological target: T4, human 5-HT1B receptor (Homo sapiens, UniProt P28222)
T4 construct: purchased Euroscreen; host or cells: CHO-K1
T4 sequence (P28222 whole entry): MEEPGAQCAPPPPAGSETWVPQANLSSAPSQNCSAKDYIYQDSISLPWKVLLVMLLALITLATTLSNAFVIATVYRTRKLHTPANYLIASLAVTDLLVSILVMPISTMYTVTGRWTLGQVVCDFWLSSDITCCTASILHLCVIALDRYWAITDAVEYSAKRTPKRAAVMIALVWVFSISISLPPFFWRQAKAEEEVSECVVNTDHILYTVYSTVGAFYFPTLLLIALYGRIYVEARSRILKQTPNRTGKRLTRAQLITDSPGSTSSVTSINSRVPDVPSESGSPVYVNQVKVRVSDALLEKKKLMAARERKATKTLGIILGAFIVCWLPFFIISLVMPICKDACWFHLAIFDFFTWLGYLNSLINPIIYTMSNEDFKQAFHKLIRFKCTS
Description: as §1
5-HT1B Radioligand Binding Assay
Assay buffer: 50 mM Tris (pH 7.4), 12.5 mM MgCl2, 0.1% ascorbic acid, 1 mM EDTA Washing buffer: 50 mM Tris (pH 7.4) Membrane: recombinant CHO-K1-5-HT1B membranes thawed on ice and diluted in assay buffer (7 μg/well)
Ligand: 5-CT (Tocris, 0458)
Radioligand: [^3H]-CT (Perkin Elmer, TRK1038, diluted in assay buffer for a final concentration of 0.6 nM) Filter plate: GF/B Unifilter plate (Perkin Elmer, 6005177) presoaked in 0.5% PEI for 2 hours at RT.
as §5, §6, §7, §8

human D2L receptor = biological target: T5, human D2L receptor (Homo sapiens, UniProt P14416)
T5 construct: purchased Euroscreen; host or cells: CHO-K1
T5 sequence (P14416 whole entry): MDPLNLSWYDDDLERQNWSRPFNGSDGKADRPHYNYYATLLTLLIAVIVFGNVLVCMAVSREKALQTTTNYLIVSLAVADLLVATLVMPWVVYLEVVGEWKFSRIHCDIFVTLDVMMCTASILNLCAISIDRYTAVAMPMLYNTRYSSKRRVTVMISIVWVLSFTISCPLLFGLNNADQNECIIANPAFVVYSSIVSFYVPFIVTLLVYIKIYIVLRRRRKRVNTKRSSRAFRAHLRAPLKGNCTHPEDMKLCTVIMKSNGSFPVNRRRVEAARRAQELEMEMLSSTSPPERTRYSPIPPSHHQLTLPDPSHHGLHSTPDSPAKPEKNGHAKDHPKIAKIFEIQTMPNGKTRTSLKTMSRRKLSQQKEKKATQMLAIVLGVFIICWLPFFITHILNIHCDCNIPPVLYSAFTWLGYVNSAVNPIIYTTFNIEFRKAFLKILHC
Description: as §1
D2L Radioligand Binding Assay
Assay buffer: 25 mM HEPES (pH 7.4), 5 mM MgCl2, 1 mM CaCl2, BSA protease free 0.5% Washing buffer: 25 mM HEPES (pH 7.4), 5 mM MgCl2, 1 mM CaCl2 Membrane: recombinant CHO-K1-D2L membranes thawed on ice and diluted in assay buffer (2 μg/well)
Ligand: Risperidone (Tocris Bioscience, 2865)
Radioligand: [^3H]-Spiperone (TRK818, diluted in assay buffer for a final concentration of 3 nM) Filter plate: GF/B Unifilter plate (Perkin Elmer, 6005177) presoaked in 0.5% PEI for 2 hours at RT.
as §5, §6, §7
as §8, with “minutes). […]” for “minutes).”

Row | SMILES | pIC50 (human 5-HT1A receptor; 5-HT1A, [3H]-WAY100635, read-out: IC50 from binding assay) | Avg Dissociation half-life (human 5-HT1D receptor; 5-HT1D) [h] | Avg Koff (human 5-HT1D receptor; 5-HT1D) [s⁻¹] | pIC50 (human 5-HT1D receptor; 5-HT1D, [3H]-CT, read-out: IC50 from binding assay) | pIC50 (human 5-HT2B receptor; 5-HT2B, [3H]-Mesulergine, read-out: IC50 from binding assay) | Avg Dissociation half-life (human 5-HT1B receptor; 5-HT1B) [h] | Avg Koff (human 5-HT1B receptor; 5-HT1B) [s⁻¹] | pIC50 (human 5-HT1B receptor; 5-HT1B, [3H]-CT, read-out: IC50 from binding assay) | Avg Dissociation half-life (human D2L receptor; D2L) [h] | Avg Koff (human D2L receptor; D2L) [s⁻¹] | pIC50 (human D2L receptor; D2L, [3H]-Spiperone, read-out: IC50 from binding assay) | pIC50 (human 5-HT1A receptor) | pIC50 (human 5-HT1D receptor) | koff (human 5-HT1D receptor; read-out: Avg Koff) [s⁻¹] | pIC50 (human 5-HT2B receptor) | pIC50 (human 5-HT1B receptor) | koff (human 5-HT1B receptor; read-out: Avg Koff) [s⁻¹] | pIC50 (human D2L receptor) | koff (human D2L receptor; D2L) [s⁻¹]
1 | CN1C[C@H](C(=O)N[C@]2(C)O[C@@]3(O)[C@@H]4CCC(O)N4C(=O)[C@H](Cc4ccccc4)N3C2=O)C[C@@H]2c3cccc4[nH]cc(c34)C[C@H]21 (stereo partly shown) [8′-OH DHE, 8′-Hydroxy-Dihydroergotamine] | 9.37 | 1.10 | 0.000175 | 9.10 | 8.11 | 1.94 | 9.83e-05 | 9.11 | 0.15 | 0.00127 | 6.53 |  |  |  |  |  |  |  | 
2 | CN1C[C@H](C(=O)N[C@]2(C)O[C@@]3(O)[C@@H]4CCCN4C(=O)[C@H](Cc4ccccc4)N3C2=O)C[C@@H]2c3cccc4[nH]cc(c34)C[C@H]21 [DHE, Dihydroergotamine] |  | 1.28 |  |  |  | 1.38 |  |  | 0.24 |  |  | 9.57 | 9.19 | 0.00015 | 7.89 | 9.26 | 0.00014 | 6.64 | 0.000792
